The values below come from a melting point compilation (Tetko et al.; mined from patent text by program, amines drawn as free bases though some values may be those of a salt).

Structures are written as SMILES.

In the case of `Nc1cc(=O)n(Cc2ccc(Br)cc2)[nH]1`, the melting point came to 139 °C.
The value for `C/C(=C(\C#N)C(N)=S)N1CCC(C)CC1` was 156 to 159 °C.
Under `Fc1ccc2[nH]cc(CC3CCNCC3)c2c1` stands 155 to 157 °C.
The value for `Fc1ccc(-c2csc(Nc3ccccc3C(F)(F)F)n2)cc1` was 184 °C.
The compound `COc1ccc(C=CC(=O)C=Cc2ccc(OC)c(OC)c2)cc1OC` came in with a melting point of 68 to 70 °C.
Under `COc1ccnc(CCc2nc3cc(-c4ccc(OCc5ccccc5)cc4)cnc3[nH]2)c1` stands 161 to 162 °C; under `Cc1nnc(-c2ccc3occ(-c4ccc(SCF)cc4)c3c2)o1`, 143 to 144 °C.
With `C=CCC1(C)OC(=O)Nc2ccc(-c3cccc(Cl)c3)cc21` (centres undefined), the melting point fell in the range of 128 to 129 °C.
The compound `CCOC(=O)c1c(CN(CC)CC)nc2cc(OC)c(OC)cc2c1-c1ccc(OC)c(OC)c1` came in with a melting point of 130 to 131 °C.
As to `N#CCc1ccc(Oc2ccc3c(c2)S(=O)(=O)NC2CCCN32)cc1` (centres undefined), the melting point was in the range of 156 to 158 °C.
Compound `CCCCCN1C(=O)C2(OCc3cc4c(cc32)OCO4)c2ccccc21` (centres undefined) returned a melting point of 113 to 115 °C.
The value for `CC(C)(C)C1=NN(c2ccc(S(=O)(=O)O)cc2)C(c2ccc(Cl)cc2)C1` (centres undefined) was 92.5 °C.
The value for `Cc1cccc(C2(Cn3cncn3)OCCO2)c1` was 105 °C.
As to `O=S(=O)(c1cc(Cl)cc(Cl)c1)n1ccc2c(N3CCN(Cc4ccccc4)CC3)cccc21`, the melting point lay within 162 to 163 °C.
Consider `Cc1cccc(COc2ccc3c(c2)[C@@H](O)[C@H](Cc2cccnc2)CO3)n1` (relative stereo), for which the melting point is 66 to 68 °C.
Under `CN1C(=O)C(C)(C)Oc2c(C(=O)O)cc(Cl)cc21` stands 235 to 236 °C.
The value for `COc1ccccc1-c1nsc2ccc([N+](=O)[O-])cc12` was 193 to 198 °C; that for `COc1ccc(-c2nn(Cc3ccccc3)c(=O)c3ccccc23)c(O)c1OC` was 155 to 156 °C; that for `CCCC(=O)Nc1n[nH]c2cc(-c3ccc(O)cc3)ccc12` was 235 °C.
Under `N=C(c1ccccc1)C1CCN1C(c1ccccc1)c1ccccc1` (centres undefined) stands 124 to 126 °C; under `O=c1c2cc(F)c(N3CCCC3)nc2n(-c2ccc(F)cc2F)c(=O)n1O`, 189 to 191 °C; under `CCCCOc1c(CNC(=O)OC(C)(C)C)n(CC(C)C)c(=O)c2ccc(NC(C)=O)cc12`, 174 to 175 °C.
With `O=C(NC(Cc1c[nH]c2ccccc12)C(=O)Oc1c(F)c(F)c(F)c(F)c1F)OCc1ccccc1` (centres undefined), the melting point lay within 169 to 170 °C.
With `C#CCN(C(CCn1c(=O)[nH]c(C)c(C)c1=O)C(=O)NO)S(=O)(=O)c1ccc(Oc2ccccc2)cc1` (centres undefined), the melting point lay in the range of 180 to 181 °C.
For the compound `O=C(NCCCCC1CCSS1)N1CCSC1` (centres undefined), the melting point was in the range of 76 to 77 °C.
The value for `O=S1(=O)c2cccc3cccc(c23)N1CCN1CCN(c2noc3ccccc23)CC1` was 148 °C; that for `CCCCc1ncc(/C=C(\Cc2cccs2)c2nnn[nH]2)n1Cc1ccccc1[N+](=O)[O-]` was 231 to 234 °C; that for `COc1ccc(OC(=O)CN2CCN(Cc3ccc(OC)c(OC)c3OC)CC2)cc1` was 68 to 71 °C.
Consider `c1cc2c3c(c[nH]c3c1)CC1NCCOC21` (centres undefined), for which the melting point is 175 to 177 °C.
The value for `Cc1ccc(S(=O)(=O)OC[C@H]2COc3cc(F)c4c(c3O2)CC(=O)N4)cc1` was 205 to 206 °C; that for `C[C@H](C#Cc1sccc1Cc1ccc(F)cc1)N(O)C(N)=O` was 99 to 100 °C.
As to `Cc1c(Cc2cccc(C(F)(F)F)c2)sc2c(-c3cc(C(N)=O)ccn3)cccc12`, the melting point lay within 193 to 194 °C.
The value for `CCOc1cc2ncc(C#N)c(Nc3ccc(F)cc3C)c2cc1OCC` was 105 to 108 °C.
Under `CC(C)COc1ccc(-n2cc(C(=O)O)cn2)cc1C#N` stands 192 to 194 °C; under `COc1cc(I)c(C(=O)OC(C)COC(=O)c2ccc3c(c2I)OCO3)cc1OC` (centres undefined), 131 to 133 °C; under `COc1ccc(-c2nc(-c3cccs3)c[nH]2)cc1Br`, 84 to 87 °C.
Under `CNC(=O)[C@H]1CN(c2cc(F)c(N3CCOCC3)c(F)c2)C(=O)O1` stands 179 to 181 °C; under `COC(=O)c1c(Cl)cc(Cl)cc1NC(=O)CSc1ccc(NC(=S)Nc2cccc(Cl)c2)cc1`, 148 to 150 °C; under `COc1ccc(Cl)cc1-c1c(N)c(=O)[nH]c2ccccc12`, 248 to 250 °C.
`COc1ccc2[nH]cc3c2c1[C@@]1(C)OCCN(C)[C@@H]1C3` (relative stereo) came in with a melting point of 200 to 202 °C.
Under `O=C(CC(=O)C(F)(F)F)c1nc2ccc(F)cc2s1` stands 175 to 178 °C.
`CCCc1ccc2nc(F)c(S(N)(=O)=O)n2n1` displayed a melting point of 148 °C.
The value for `c1cc(Nc2nccc3ccccc23)cc(-n2ccnc2)c1` was 164 to 167 °C.
The value for `O=C(O)c1ccc2ccccc2c1OCC(F)(F)F` was 172 °C; that for `CC1(C)CCCC(C)(C)N1CCO` was 93 to 94 °C; that for `CCC(Oc1ccc(CCC(=O)c2ccc(-c3ccc(C(F)(F)F)cc3)s2)cc1Br)C(=O)O` (centres undefined) was 126 to 128 °C.
The value for `CCCCCCCc1ccc(OC(=O)c2cc3c(s2)CC(CCCCC)C3)cc1` (centres undefined) was 64 °C.
`C=C(Sc1ccc(C(C)(C)C)cc1)S(=O)(=O)c1ccc(Cl)cc1` came in with a melting point of 74 to 79 °C.
Under `Cn1cc(C2=C(c3cn(CCCNS(=O)(=O)c4ccccc4)c4ccccc34)C(=O)NC2=O)c2ccccc21` stands 125 to 128 °C; under `ON=Cc1cc(Cl)ncc1Cl`, 173 to 174 °C; under `Cc1ccc(OCc2ccccc2)c(C(=O)O)c1`, 98 to 100 °C.
`COc1cc(OC)nc(SC2CCCC2CC(=O)O)n1` (centres undefined) registered a melting point of 125 to 127 °C.
Under `CC(C)OC(=O)N1c2cncnc2NC(=S)C1C` (racemic) stands 203 to 204 °C.
Under `CC1(C)CN(Cc2cc(F)ccc2F)c2cc(I)cnc2N1` stands 168 to 169 °C; under `Cn1cc(OS(C)(=O)=O)c(=O)c2ccc(S(C)(=O)=O)cc21`, 258 to 260 °C; under `CP(=O)(O)CC1CC(Cl)=NO1` (centres undefined), 116 °C.
The value for `COC(=O)c1ccc(CNC(=O)c2[nH]c(-c3cccs3)cc2-c2ccc(F)cc2)cn1` was 174 to 175 °C.
On to `COc1ccc2c(c1C=O)Nc1ccccc1S2`, for which the melting point was 155 to 160 °C.
The value for `OCc1cc(-c2nnc3c4ccccc4c(OCc4ccccn4)nn23)no1` was 129 to 131 °C; that for `Cn1c(C(F)(F)F)cc(=O)n(-c2ccc3snc(C4OCC(O)(CBr)CO4)c3c2)c1=O` (centres undefined) was 105 to 110 °C.
Turning to `CC(=O)OC1CSC(Oc2cccnc2-c2nnn[nH]2)C(OC(C)=O)C1OC(C)=O` (centres undefined), the melting point fell in the range of 119 to 127 °C.
Under `ClCc1cccc2c(-c3ccc(Cl)cc3)nccc12` stands 101 to 102 °C; under `COC(=O)c1ccc(-c2nc3ccc(C(=O)O)cc3[nH]2)cc1`, 308 to 309 °C; under `COc1ccc(CN(C)CCCc2ccc(NC(=O)c3cccc4c(=O)c5cccc(F)c5[nH]c34)cc2)cc1OC`, 158 °C.
In turn, `CC(C)N1Cc2cccc(F)c2N(CCN2CC=C(c3c[nH]c4cc(F)ccc34)CC2)S1(=O)=O` came in with a melting point of 199 to 201 °C.
`CN(C)S(=O)(=O)c1cccc2c1Sc1ccc(OCc3ccccc3)cc1N2` showed a melting point of 192 to 194 °C.
Under `c1ccc(CN2CCCC3(CC2)CC(c2ccccc2)=NO3)cc1` (centres undefined) stands 42 to 57 °C; under `CCCC(=O)Nc1n[nH]c2c([N+](=O)[O-])c(Br)c([N+](=O)[O-])cc12`, 260 °C; under `CCC(C(=O)Nc1c(C)cccc1C)N1C(=O)c2ccccc2C1=O` (centres undefined), 195 to 196 °C.
Under `COc1cccc(CNC(=O)c2nc3sc(C(=O)O)c(C)c3c(=O)[nH]2)c1` stands greater than 300 °C.
The value for `C[C@@H](Cn1ncc2ccc(O)c(C=O)c21)NC(=O)OCc1ccccc1` was 135 to 137 °C; that for `CCOC(=O)c1ccc(/C=C(\CCCc2ccc(OC)cc2)Cn2ccnc2)cc1` was 92 to 94 °C; that for `Cc1cc(-c2cccc(C3=Nc4cc(N5CCCC5)c(C#N)cc4NC(=O)C3)c2)on1` was 267 °C.
As for `O=C1N(CCCl)CCN1C1CCCCC1`, the melting point lay in the range of 60 to 64 °C.
Regarding `O=C(C1CCN(c2ccncc2)CC1)N1CCN(Cc2ccc(Br)cc2)CC1`, the melting point lay in the range of 148 to 149 °C.
The value for `COc1ccc(C(=Cn2cc[nH]c2=O)CC(=O)O)cc1OC1CCCC1` was 194 °C; that for `Oc1ccc2c3c1OC1C(O)CCC4(F)C(C2)N(CC2CCC2)CCC314` (centres undefined) was 236 to 239 °C.
`COc1ccc(C(=O)Nc2ccc(C)c(C)c2)cc1NC(=S)Nc1cccc(C)c1`: the melting point was 155 to 160 °C.
`CCCNCCc1ccc(NS(=O)(=O)c2ccc(OC(F)(F)F)cc2)cc1` registered a melting point of 151 to 154 °C.
Under `Cc1nc2sccn2c1C1=NNC(=O)OC1` stands 294 °C; under `CC1(C)NC(=O)N(CC(CCS(=O)(=O)c2ccc(-c3ccc(C(F)(F)F)cc3)cc2)N(O)C=O)C1=O` (centres undefined), 125 °C.
Under `N#CCCCNc1cccc(/C=C/c2nc3ccccc3s2)c1` stands 97 to 98 °C.
The value for `Cc1c(Br)cccc1N1CCn2c(cc3c2CCCC3)C1=O` was 163 to 165 °C; that for `O=C(c1cccs1)c1cnn2c(-c3ccc(F)c(N(C(=O)OCC(Cl)(Cl)Cl)C(=O)OCC(Cl)(Cl)Cl)c3)ccnc12` was 94 to 97 °C; that for `O=C1C2C[C@H](O)CN2C(=O)N1c1ccc([N+](=O)[O-])c2ccccc12` (some centres undefined) was 246 to 248 °C.
Turning to `CS(=O)(=O)NC(=O)CCCCOc1cccc2occc12`, the melting point lay within 110 to 112 °C.
Under `CN1CC=C(c2c[nH]c3ccc(NS(C)(=O)=O)cc23)CC1` stands 210 to 214 °C; under `Clc1ccc(-c2ccc(C(Cl)Cn3cncn3)cc2)cc1` (centres undefined), 118 °C; under `O=C(O)C12CC3(F)CC(F)(CC(F)(C3)C1)C2`, 198 to 199 °C.
